Active and inactive are the calls of the source.
Key:
[1] = molecular target: G-protein coupled receptor 55 (Homo sapiens, UniProt Q9Y2T6); assay: inhibition of LPI-stimulated GPR55 beta-arrestin translocation – imaging, U2OS, beta-arrestin-GFP, LPI agonist, primary screen (AID 2013); assay type: functional;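 note: antagonist potency measured as reduced agonist-driven arrestin aggregation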
[2] = molecular target: DNA dC->dU-editing enzyme APOBEC-3G (Homo sapiens, UniProt Q9HC16); assay type: functional;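 note: Dose-response counterscreen measuring inhibition of APOBEC3G DNA deaminase activity, run while confirming APOBEC3A inhibitors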
[3] = molecular target: DNA dC->dU-editing enzyme APOBEC-3A (Homo sapiens, UniProt P31941); assay: Dose Response confirmation of small molecule APOBEC3A DNA Deaminase Inhibitors via a fluorescence-based single-stranded DNA deaminase assay. [Related pubchem assays (depositor defined):AID493011, AID493024]; assay type: functional
[4] = molecular target: Potassium voltage-gated channel subfamily KQT member 2 (Rattus norvegicus, UniProt O88943); assay: potentiation of rat KCNQ2 current – cell-based, retigabine-insensitive compounds, dose response (AID 2654); assay type: functional
cells [5] = assay: cells
[6] = viability of uninfected HEp-2 cells – cell-based, HTS, cytotoxicity control for RSV inhibitor project, dose response (AID 2410); assay type: functional; details: human respiratory syncytial virus
Vero [7] = assay: cells; assay type: functional, cell-based; details: Chlorocebus sabaeus
Vero [8] = assay: cells; assay type: functional; details: Chlorocebus sabaeus
[9] = molecular target: T1, Zinc finger protein mex-5 (Caenorhabditis elegans, UniProt Q9XUB2); assay: potency of MEX-5 RNA-binding blockers – biochemical, C. elegans, fluorescence polarization, dose response (AID 1960)
T1 sequence (Q9XUB2 whole entry): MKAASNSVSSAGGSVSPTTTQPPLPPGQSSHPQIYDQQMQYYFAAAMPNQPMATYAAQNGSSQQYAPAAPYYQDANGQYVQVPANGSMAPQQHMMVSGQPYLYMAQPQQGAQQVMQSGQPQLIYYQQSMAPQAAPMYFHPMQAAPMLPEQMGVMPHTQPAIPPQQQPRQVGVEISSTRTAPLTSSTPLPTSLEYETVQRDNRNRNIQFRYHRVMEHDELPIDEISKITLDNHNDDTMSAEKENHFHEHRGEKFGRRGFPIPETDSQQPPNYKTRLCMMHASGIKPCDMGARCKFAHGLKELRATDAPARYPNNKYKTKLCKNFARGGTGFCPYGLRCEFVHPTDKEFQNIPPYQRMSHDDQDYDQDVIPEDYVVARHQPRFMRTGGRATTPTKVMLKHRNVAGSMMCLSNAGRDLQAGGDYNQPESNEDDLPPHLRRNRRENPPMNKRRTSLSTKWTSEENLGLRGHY

[10] = molecular target: T2, RNA-binding protein pos-1 (Caenorhabditis elegans, UniProt G5EF15); assay: disruptors of C. elegans POS-1 RNA interaction – biochemical, fluorescence polarization, dose response (AID 1964);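 note: purified POS-1 fused to maltose binding protein made in E. coli; potency of compounds blocking POS-1 binding to fluorescent RNA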
T2 sequence (G5EF15 whole entry): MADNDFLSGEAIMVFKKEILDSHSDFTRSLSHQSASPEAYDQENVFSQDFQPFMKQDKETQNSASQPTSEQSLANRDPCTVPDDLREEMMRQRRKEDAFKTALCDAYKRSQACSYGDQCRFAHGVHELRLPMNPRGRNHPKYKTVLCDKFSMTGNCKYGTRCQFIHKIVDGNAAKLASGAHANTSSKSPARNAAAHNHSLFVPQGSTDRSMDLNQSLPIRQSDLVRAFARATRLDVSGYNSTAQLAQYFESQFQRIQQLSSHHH

[11] = molecular target: T3, Histone-lysine N-methyltransferase NSD2 (Homo sapiens, UniProt O96028); assay type: biochemical
T3 sequence (O96028 whole entry): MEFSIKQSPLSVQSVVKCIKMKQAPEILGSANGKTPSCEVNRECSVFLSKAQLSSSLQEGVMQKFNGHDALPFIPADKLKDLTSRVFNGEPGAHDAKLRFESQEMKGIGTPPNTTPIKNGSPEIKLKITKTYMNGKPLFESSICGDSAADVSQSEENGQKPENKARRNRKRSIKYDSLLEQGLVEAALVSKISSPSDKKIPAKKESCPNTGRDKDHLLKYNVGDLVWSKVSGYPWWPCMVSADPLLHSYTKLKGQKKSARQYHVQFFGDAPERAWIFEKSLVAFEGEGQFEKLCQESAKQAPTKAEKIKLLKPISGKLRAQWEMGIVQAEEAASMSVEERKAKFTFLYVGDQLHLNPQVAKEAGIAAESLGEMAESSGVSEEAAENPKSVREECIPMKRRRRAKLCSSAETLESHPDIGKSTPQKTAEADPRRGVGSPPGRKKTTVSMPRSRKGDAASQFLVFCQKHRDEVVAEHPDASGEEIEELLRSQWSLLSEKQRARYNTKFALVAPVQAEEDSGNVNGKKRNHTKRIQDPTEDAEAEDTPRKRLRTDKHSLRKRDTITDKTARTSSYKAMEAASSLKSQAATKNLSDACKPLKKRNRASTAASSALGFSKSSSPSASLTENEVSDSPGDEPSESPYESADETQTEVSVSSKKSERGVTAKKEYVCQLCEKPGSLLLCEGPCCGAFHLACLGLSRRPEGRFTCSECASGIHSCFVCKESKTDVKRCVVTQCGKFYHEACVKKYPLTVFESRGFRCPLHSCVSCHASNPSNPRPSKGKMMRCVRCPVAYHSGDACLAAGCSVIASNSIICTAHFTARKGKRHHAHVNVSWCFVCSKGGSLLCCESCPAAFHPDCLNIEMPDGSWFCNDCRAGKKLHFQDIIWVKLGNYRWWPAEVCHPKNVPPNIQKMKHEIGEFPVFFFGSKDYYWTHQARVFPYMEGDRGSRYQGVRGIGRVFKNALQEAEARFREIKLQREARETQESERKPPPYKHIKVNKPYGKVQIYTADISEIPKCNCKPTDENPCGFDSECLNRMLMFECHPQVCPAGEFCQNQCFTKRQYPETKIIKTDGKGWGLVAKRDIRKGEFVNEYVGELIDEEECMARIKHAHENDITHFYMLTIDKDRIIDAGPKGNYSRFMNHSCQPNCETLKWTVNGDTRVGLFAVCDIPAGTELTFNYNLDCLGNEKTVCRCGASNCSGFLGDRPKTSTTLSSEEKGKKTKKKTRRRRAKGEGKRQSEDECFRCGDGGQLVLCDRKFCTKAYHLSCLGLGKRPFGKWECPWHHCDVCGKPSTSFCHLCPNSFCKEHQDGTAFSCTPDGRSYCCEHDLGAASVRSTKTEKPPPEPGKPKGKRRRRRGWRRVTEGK

cells [12] = assay type: functional, cell-based
cells [13] = assay type: functional, cell-based; remark: listed apart in the source
[14] = molecular target: DNA damage-inducible transcript 3 protein (Mus musculus, UniProt P35639); assay type: functional, Cricetulus griseus
HT-1080 = assay: HT1080 cell viability loss – fluorescence readout (AID 620); assay type: functional, cell-based; details: Homo sapiens
[15] = molecular target: Luciferin 4-monooxygenase (Photinus pyralis, UniProt P08659); assay: Counter Screen for Luciferase-based Assay Positives. [Related pubchem assays: 620, 618, 411 ]
Ion channel NompC = Ion channel NompC (Danio rerio, UniProt Q7T1G6); assay: Fluorescence counterscreen assay for TRPML3 agonists: dose response cell-based high-throughput screening assay to identify agonists of the transient receptor potential channel N1 (TRPN1). [Related pubchem assays: 1526, 1424, 1448 ]; assay type: functional
Mucolipin-3 = molecular target: T4, Mucolipin-3 (Homo sapiens, UniProt Q8TDD5); assay: Dose response cell-based high-throughput screening assay for agonists of the transient receptor potential channel ML3 (TRPML3). [Related pubchem assays: 1526, 1424, 1448 ]; assay type: functional
T4 sequence (Q8TDD5 whole entry): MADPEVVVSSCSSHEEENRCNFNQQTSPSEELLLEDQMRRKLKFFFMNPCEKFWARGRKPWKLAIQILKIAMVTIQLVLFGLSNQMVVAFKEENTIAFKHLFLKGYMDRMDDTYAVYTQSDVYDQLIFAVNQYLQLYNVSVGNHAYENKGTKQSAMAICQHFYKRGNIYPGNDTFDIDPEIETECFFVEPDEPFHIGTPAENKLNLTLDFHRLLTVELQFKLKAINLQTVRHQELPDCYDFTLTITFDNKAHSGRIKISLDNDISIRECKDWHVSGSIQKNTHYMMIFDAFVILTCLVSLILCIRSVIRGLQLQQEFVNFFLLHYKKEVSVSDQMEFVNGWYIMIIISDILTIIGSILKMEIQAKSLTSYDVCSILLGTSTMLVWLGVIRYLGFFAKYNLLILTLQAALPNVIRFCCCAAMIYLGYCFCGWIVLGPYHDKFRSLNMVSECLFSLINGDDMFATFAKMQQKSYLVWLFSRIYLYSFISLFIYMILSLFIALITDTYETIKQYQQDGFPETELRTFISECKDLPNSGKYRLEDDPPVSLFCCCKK

[16] = reduction of Shn3 3'UTR-driven luciferase in osteoblasts – cell-based, Clone20 osteoblasts, firefly luciferase, cherry-picked, dose response (AID 624132); assay type: functional;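 note: firefly luciferase luminescence from reporter carrying the Shn3 3'UTR in osteoblasts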
[17] = loss of viability in HepG2 cells – cell-based, CellTiter-Glo, cherry-picked, cytotoxicity control for Shn3 inhibitor project, dose response (AID 624134); assay type: functional
[18] = non-specific 3'UTR reporter inhibition in Clone20-Shn3RL – cell-based, Renilla luciferase, cherry-picked, counter-screen for Shn3 inhibitor project, dose response (AID 624133); assay type: functional
[19] = HEK-293T viability loss after treatment – luminescence, T-cell screen hits, cytotoxicity control for TCR NF-kB inhibitor project, dose response (AID 489026); assay type: functional, cell-based;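 note: cells exposed to compound about 14 hours before the viability readout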
HEK293 [20] = assay: NOD2 signaling inhibitors in MDP-stimulated cells, cell-based, uHTS, luminescence (AID 2001); assay type: functional; details: Homo sapiens
[21] = NIH3T3 cell viability loss – ATP luminescence, mouse fibroblasts, counter-screen, dose response (AID 2010); assay type: functional, cell-based;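 note: cells exposed to compound for about 90 hours before reading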
HEK293 [22] = assay: cells; assay type: functional, cell-based; details: Homo sapiens
[23] = Trypanosoma cruzi growth suppression in host cells – NIH3T3 host cells, beta-gal luminescence, confirmation (AID 2044); assay type: functional, cell-based;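 note: intracellular parasites grown in NIH/3T3 mouse fibroblasts as host cells; luminescent beta-galactosidase reporter signal from transgenic T. cruzi replicating inside host cells; inhibitors lower the luminescence signal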
[24] = fluconazole-exposed Candida albicans growth modulators – fluorescence, retest, confirmation (AID 2467); assay type: functional, cell-based
[25] = molecular target: FAD-linked sulfhydryl oxidase ALR (Homo sapiens, UniProt P55789); assay: ALR-catalysed DTT oxidation blockers – biochemical, H2O2 detection, luminescence, cherry-pick, dose response (AID 493248)
HEK293 [26] = assay: cells; assay type: functional, cell-based; details: Homo sapiens; remark: listed apart in the source
[27] = NIH-3T3 fibroblast cytotoxicity, dose response, cytotoxicity control, cell-based, fluorescence, Alamar Blue, secondary assay (AID 2327); assay type: functional;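 note: NIH-3T3 mouse fibroblasts cultured with fluconazole at 8 µg/mL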
HEK293 [28] = assay: inhibition of NOD1-driven NF-kB reporter – cell-based, luminescence, uHTS, primary screen (AID 1578); assay type: functional; details: Homo sapiens

Chain of DNA dC->dU-editing enzyme APOBEC-3G (Q9HC16 whole entry): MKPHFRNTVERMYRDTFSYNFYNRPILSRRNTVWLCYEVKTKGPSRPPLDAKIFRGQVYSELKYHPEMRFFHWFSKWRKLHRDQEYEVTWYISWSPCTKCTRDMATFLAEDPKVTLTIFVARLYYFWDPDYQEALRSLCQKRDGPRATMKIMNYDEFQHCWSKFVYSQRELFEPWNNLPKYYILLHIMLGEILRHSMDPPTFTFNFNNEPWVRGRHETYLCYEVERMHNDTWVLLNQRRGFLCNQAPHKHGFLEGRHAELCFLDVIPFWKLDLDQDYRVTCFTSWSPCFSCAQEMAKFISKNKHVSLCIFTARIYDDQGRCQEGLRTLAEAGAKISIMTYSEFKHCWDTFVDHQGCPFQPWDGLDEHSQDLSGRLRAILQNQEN
Chain of Potassium voltage-gated channel subfamily KQT member 2 (O88943 whole entry): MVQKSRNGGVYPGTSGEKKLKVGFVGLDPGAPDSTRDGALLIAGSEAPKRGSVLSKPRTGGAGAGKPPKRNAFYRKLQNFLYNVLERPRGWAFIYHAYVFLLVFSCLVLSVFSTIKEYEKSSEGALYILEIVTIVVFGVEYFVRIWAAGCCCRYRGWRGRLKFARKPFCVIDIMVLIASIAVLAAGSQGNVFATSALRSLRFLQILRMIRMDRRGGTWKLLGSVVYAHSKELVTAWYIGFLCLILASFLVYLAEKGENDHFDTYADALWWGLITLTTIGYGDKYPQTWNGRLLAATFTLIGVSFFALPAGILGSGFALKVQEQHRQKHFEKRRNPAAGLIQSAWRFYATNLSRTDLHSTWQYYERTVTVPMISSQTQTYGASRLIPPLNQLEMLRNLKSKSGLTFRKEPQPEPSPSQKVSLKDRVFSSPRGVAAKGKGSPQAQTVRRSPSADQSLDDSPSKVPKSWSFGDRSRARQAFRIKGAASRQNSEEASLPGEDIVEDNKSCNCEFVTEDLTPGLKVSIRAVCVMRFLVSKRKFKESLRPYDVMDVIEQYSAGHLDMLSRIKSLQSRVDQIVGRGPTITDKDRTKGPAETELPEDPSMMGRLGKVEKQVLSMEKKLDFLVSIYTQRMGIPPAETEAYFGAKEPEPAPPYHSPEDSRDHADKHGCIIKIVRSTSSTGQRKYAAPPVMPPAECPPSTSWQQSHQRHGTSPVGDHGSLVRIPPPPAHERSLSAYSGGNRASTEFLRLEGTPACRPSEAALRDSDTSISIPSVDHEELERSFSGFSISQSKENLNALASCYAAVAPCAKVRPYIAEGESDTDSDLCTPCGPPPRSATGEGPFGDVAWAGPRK
Chain of DNA dC->dU-editing enzyme APOBEC-3A (P31941 whole entry): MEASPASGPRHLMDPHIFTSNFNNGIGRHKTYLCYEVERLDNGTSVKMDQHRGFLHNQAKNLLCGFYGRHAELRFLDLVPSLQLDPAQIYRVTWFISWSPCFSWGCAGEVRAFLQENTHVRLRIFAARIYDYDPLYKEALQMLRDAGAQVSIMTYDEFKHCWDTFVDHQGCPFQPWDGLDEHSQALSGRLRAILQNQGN
Chain of DNA damage-inducible transcript 3 protein (P35639 whole entry): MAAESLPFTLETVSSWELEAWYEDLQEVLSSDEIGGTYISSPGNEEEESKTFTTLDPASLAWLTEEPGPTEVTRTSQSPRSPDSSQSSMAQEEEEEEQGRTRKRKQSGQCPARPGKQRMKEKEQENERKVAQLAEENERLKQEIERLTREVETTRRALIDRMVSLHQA
Chain of Ion channel NompC (Q7T1G6 whole entry): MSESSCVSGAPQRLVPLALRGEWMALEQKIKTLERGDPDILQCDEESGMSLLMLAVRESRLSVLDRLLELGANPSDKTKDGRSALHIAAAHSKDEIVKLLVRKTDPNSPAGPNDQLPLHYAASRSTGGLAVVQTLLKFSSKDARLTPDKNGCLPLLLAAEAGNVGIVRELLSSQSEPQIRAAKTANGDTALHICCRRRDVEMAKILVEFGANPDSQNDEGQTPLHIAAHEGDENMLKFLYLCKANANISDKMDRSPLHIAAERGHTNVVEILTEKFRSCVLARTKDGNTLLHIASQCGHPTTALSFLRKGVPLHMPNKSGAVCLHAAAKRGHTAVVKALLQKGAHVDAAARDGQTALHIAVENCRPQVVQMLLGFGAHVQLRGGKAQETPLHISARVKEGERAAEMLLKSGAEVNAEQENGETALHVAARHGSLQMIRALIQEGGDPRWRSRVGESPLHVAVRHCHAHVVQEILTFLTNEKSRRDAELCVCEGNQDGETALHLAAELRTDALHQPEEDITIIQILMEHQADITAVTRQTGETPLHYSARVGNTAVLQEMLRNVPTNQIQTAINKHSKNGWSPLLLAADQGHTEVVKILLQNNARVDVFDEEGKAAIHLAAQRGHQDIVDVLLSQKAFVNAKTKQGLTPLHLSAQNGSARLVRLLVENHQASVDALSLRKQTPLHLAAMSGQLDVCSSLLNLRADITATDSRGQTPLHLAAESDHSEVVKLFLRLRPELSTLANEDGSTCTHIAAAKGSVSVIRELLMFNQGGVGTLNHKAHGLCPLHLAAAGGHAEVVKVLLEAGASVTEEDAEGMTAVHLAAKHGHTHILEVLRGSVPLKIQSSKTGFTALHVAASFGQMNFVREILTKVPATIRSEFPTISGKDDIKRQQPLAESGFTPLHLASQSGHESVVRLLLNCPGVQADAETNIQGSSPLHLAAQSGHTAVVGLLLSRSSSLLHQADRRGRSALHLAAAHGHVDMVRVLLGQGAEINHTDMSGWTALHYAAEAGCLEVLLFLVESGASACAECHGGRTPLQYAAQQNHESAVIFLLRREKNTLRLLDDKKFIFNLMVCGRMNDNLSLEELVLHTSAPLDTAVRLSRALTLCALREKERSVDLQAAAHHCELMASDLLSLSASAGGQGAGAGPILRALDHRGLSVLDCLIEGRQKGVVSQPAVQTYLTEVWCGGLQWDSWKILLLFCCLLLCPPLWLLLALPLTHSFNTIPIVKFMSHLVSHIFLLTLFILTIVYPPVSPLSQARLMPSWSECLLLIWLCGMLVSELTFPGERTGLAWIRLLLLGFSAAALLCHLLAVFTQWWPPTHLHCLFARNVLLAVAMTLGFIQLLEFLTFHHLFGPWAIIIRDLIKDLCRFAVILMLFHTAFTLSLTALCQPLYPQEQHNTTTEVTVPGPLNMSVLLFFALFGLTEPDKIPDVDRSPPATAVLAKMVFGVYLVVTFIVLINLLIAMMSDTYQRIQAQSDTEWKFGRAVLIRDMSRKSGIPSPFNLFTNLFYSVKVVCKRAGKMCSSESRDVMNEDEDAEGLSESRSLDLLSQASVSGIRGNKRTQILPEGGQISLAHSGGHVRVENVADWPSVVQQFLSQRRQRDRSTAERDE
Chain of G-protein coupled receptor 55 (Q9Y2T6 whole entry): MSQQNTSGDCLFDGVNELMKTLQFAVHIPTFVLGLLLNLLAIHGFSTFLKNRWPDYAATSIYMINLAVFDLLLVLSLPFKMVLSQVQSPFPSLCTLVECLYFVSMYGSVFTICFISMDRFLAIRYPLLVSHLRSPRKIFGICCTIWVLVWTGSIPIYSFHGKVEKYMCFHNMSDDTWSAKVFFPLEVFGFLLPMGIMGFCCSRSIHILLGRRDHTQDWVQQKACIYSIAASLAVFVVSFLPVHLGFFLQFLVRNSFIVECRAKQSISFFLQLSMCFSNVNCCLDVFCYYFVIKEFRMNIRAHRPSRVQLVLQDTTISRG
Chain of Luciferin 4-monooxygenase (P08659 whole entry): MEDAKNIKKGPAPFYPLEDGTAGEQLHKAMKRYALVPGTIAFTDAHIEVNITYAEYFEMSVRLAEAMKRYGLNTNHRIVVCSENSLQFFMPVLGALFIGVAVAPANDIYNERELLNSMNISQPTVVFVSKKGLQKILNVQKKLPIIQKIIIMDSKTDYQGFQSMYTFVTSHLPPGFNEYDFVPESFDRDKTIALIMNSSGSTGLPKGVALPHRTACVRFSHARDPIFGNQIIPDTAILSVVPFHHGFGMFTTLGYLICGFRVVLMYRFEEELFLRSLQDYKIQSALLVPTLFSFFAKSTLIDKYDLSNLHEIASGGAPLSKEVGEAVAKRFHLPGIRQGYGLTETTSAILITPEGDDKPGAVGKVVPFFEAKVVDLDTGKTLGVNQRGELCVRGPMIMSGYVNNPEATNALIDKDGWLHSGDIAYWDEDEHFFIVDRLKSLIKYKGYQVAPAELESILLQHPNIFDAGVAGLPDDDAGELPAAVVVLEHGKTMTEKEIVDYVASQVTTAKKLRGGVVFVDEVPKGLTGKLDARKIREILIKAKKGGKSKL
Chain of FAD-linked sulfhydryl oxidase ALR (P55789 whole entry): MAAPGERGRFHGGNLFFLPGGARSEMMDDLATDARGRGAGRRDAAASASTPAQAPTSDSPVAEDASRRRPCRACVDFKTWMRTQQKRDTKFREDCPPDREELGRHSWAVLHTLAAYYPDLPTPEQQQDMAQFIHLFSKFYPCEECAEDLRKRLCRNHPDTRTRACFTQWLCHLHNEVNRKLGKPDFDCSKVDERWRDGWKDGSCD

Question: With `CCCSc1ccc(-c2nn(-c3ccccc3)cc2/C=C(/C#N)C(=O)N2CCOCC2)cc1` as the compound, how does the IC50 [1] read?
Answer: < 0.5 µM (active)

Question: Which results are given for `O=C(CSc1nnnn1-c1ccccc1)Nc1ccc(N2CCOCC2)c(Cl)c1`?
Answer: IC50 [2]: 9.68 µM (active); IC50 [3]: 6.63 µM (active)

Question: Which EC50 [4] does the source give for `O=C(Nc1cccnc1)Nc1ccc2c(c1)OCO2` here?
Answer: 152 µM (active)

Question: What does the source list for `Cc1cc(NC(=O)COC(=O)c2ccccc2S(=O)(=O)N(C)c2ccccc2)no1`?
Answer: IC50 (cells [5]): 9.76 µM (active); CC50 [6]: 34.1 µM (active); IC50 (Vero [7]): > 25 µM (active); CC50 (Vero [8]): > 25 µM (active)

Question: What does the source list for `Cc1ccc(CN2C(=O)N/C(=C\c3cccn3-c3cccc(C(=O)O)c3)C2=O)cc1`?
Answer: EC50 [9]: > 300 µM (not active); EC50 [10]: > 300 µM (not active); IC50 [2]: 25.7 µM (active); AC50 [11]: 12.8 µM (active); IC50 [3]: 10.3 µM (active)

Question: Which EC50 (cells [12]) does the source give for `CCC(Cc1ccccc1)n1c(=S)[nH]c2ccccc2c1=O` (stereo unspecified) here?
Answer: > 350 µM (not active)

Question: What about the EC50 (cells [13]) of the same compound?
Answer: > 350 µM (not active)

Question: And the “Absolute IC50 (CHOP)” value [14]?
Answer: 10 µM

Question: With `Cc1ccc(-c2nc3cc(NC(=O)C(C)C)ccc3o2)cc1` as the compound, how does the EC50 (HT-1080) read?
Answer: > 50 µM (not active)

Question: And the EC50 [15]?
Answer: 0.23 µM (active)

Question: Which IC50 [1] does the source give for `Cc1cc(N)n2nc(-c3ccccc3)c(-c3ccccc3)c2n1` here?
Answer: 2.35 µM (active)

Question: For `Cc1nc(NC(=O)c2csc3ccccc23)sc1C`, which EC50 (Ion channel NompC) is on record?
Answer: > 29.9 µM (not active)

Question: And the EC50 (Mucolipin-3)?
Answer: 8.95 µM (active)

Question: Which AC50 [16] does the source give for `COc1ccccc1-c1cc(C(F)(F)F)nc(S(=O)(=O)CCCC(=O)Nc2cc(C)on2)n1` here?
Answer: 6.57 µM (active)

Question: What about the AC50 [17] of the same compound?
Answer: 28 µM (active)

Question: And the AC50 [18]?
Answer: 16 µM (active)

Question: And the “Absolute IC50 (CHOP)” value [14]?
Answer: 10 µM

Question: Which EC50 (Ion channel NompC) does the source give for `CC1CCN(S(=O)(=O)c2ccc(Br)s2)CC1` here?
Answer: > 29.9 µM (not active)

Question: And the EC50 (Mucolipin-3)?
Answer: > 29.9 µM (not active)

Question: For `Cc1cncc(NC(=O)Nc2cccc(F)c2)c1`, which EC50 [4] is on record?
Answer: 12.4 µM (active)

Question: Which EC50 [4] does the source give for `Cc1cc(NC(=O)Nc2cccc(F)c2)cnc1Br` here?
Answer: 6.61 µM (active)

Question: With `Cc1ccc(C=Cc2ccc(N(C)C)cc2)[n+](C)c1` as the compound, how does the IC50 [19] read?
Answer: > 80 µM (inactive)

Question: What about the IC50 (HEK293 [20]) of the same compound?
Answer: 16 µM (inactive)

Question: And the EC50 [21]?
Answer: 16.1 µM (active)

Question: And the IC50 (HEK293 [22])?
Answer: > 20 µM (inactive)

Question: What about the IC50 [2] of the same compound?
Answer: 4.34 µM (active)

Question: And the EC50 [23]?
Answer: 0.232 µM (active)

Question: And the EC50 [24]?
Answer: 3.83 µM (active)

Question: And the AC50 [25]?
Answer: 1.24 µM (active)

Question: And the IC50 [3]?
Answer: 3.16 µM (active)

Question: What about the IC50 (HEK293 [26]) of the same compound?
Answer: 10.8 µM (active)

Question: And the EC50 [27]?
Answer: > 160 µM (inconclusive)

Question: What about the EC50 (HEK293 [28]) of the same compound?
Answer: 4.84 µM (active)

— ChEMBL document CHEMBL1201862, “PubChem BioAssay data set” (2004)
